Assay results from publication PMC3895464 (Bioorganic & medicinal chemistry, 2013).

Key:
HCA-7 cells = assay: Cell proliferation assay; assay type: cell-based; details: Homo sapiens, HCA-7, read-out: IC50 cell proliferation, HCA-7, Has2 −
[1] = tested on: HT29, HCA-7 and Apc10.1 cells; assay: Cell growth assays, IC50 ranges over the three cell lines; assay type: cell-based; details: read-out: IC50 values (tumor cell survival)
[2] = tested on: COX-2 and 5-LOX expression in HT29 cells; assay: COX-2 and 5-LOX expression in HT29 cells; assay type: cell-based, human; details: Figure 2B
HT29 cells = assay: Cell proliferation assay; assay type: cell-based; details: Homo sapiens, HT-29, read-out: IC50 cell proliferation, HT29, Has2 −
Apc10.1 cells = assay: Cell proliferation assay; assay type: cell-based, mice; details: Mus musculus, read-out: IC50 cell proliferation, Apc10.1, Has2 −
[3] = tested on: pre-neoplastic Apc10.1 cells; assay: MTT assay on pre-neoplastic Apc10.1 cells; assay type: cell-based; details: Apc10.1, 24 h

Structure (SMILES): CC1(C)Cc2c(-c3ccccc3)c(-c3ccc(Cl)cc3)c(CC(=O)O)n2C1 [Licofelone, [6-(4-chlorophenyl)-2,2-dimethyl-7-phenyl-2,3-dihydro-1H-pyrrolizin-5-yl]acetic acid]
- IC50 (HCA-7 cells): 48 ± 5.2 µM
- IC50 [1]: 45 to 75 µM
- COX-2 and 5-LOX levels [2]: substantial inhibition
- IC50 (HT29 cells): 75 ± 8.3 µM
- IC50 (Apc10.1 cells): 45 ± 7.2 µM

Structure (SMILES): CC(C)(C)C1=CC(=NNC(=O)c2ccncc2)C=C(C(C)(C)C)C1=O [BQIH, N’- (3,5-di-tert-butyl-4-oxocyclohexa-2,5-dienylidene) isonicotinohydrazide]
- IC50 [1]: 12 to 20 µM
- COX-2 and 5-LOX levels [2]: substantial inhibition

Structure (SMILES): CC(C)(C)C1=CC(=NNC(=O)c2ccccc2)C=C(C(C)(C)C)C1=O [BQBH, N’- (3,5-di-tert-butyl-4-oxocyclohexa-2,5-dienylidene) benzohydrazide]
- IC50 [1]: 12 to 20 µM
- COX-2 and 5-LOX levels [2]: substantial inhibition

Structure (SMILES): CC(C)(C)C1=CC(=NNC(=O)c2cccnc2)C=C(C(C)(C)C)C1=O [BQNH, N’- (3,5-di-tert-butyl-4-oxocyclohexa-2,5-dienylidene) nicotinohydrazide]
- cytotoxic activity (MTT) [3]: reasonable cytotoxic activity
- IC50 [1]: 6.5 to 11 µM
- COX-2 and 5-LOX levels [2]: substantial inhibition

Structure (SMILES): Cc1ccc(-c2cc(C(F)(F)F)nn2-c2ccc(S(N)(=O)=O)cc2)cc1 [Celecoxib, reference compound]
- IC50 [1]: 2 to 4.2 µM
